In article PMC8160438, “A Novel Heptapeptide, GPPGPAG Transfers to the Brain, and Ameliorates Memory Dysfunction and Dendritic Atrophy in Alzheimer’s Disease Model Mice” (Frontiers in Pharmacology, 2021):
No end group written: not given here.

Key:
[1] = Body weight during i.c.v. infusion; format: in vivo, mouse; details: i.c.v. infusion for 28 days
Method: FIGURE 4 Effect of i.c.v. infusion of GPPGPAG on object recognition memory deficits in 5XFAD mice (A) GPPGPAG or vehicle solution (artificial cerebrospinal fluid; ACSF) was continuously administered to the lateral ventricle for 28 days in mice (male and female, 24–27 weeks old). The dose of GPPGPAG was set as 10 nM in CSF. An object recognition test was carried out with a 3 h interval time. The preferential indices of the training and test sessions are shown. *p < 0.05 vs. vehicle-treated 5XFAD mice, repeated measures two-way ANOVA with post hoc Bonferroni’s test. mean ± standard error. Wild-type (male, n = 5), vehicle-treated 5XFAD mice (male, n = 2; female, n = 2), GPPGPAG-infused 5XFAD mice (male, n = 2; female, n = 3). (B) Locomotion was evaluated by open field test. Distance moved and duration with immobility were shown. mean ± standard error (C) Changed values of body weight of mice during whole experimental period are shown.
P re fe re n tia l in d e x (% ) […]
Effect of i.c.v. infusion of GPPGPAG on object recognition memory deficits in 5XFAD mice
(A) GPPGPAG or vehicle solution (artificial cerebrospinal fluid; ACSF) was continuously administered to the lateral ventricle for 28 days in mice (females, 5 - 7 months old). The dose of GPPGPAG was set as 10 nM in ACSF. An object recognition test was carried out with a 24 h interval time. […] (B) Locomotion was evaluated by open field test. […]

[2] = Stability in lysate of mouse cerebral cortex; format: in vitro ADME
Method: For intraventricular administration, GPPGPAG was dissolved in artificial cerebrospinal fluid (ACSF; 130 mM NaCl, 24 mM NaHCO3, 3.5 mM KCl, 1.3 mM Na2HPO4, 2 mM CaCl2, 2 mM MgCl2 6H2O, and 10 mM glucose at pH 7.4) for use. GPPGPAG or ACSF was continuously injected for 28 days into the left ventricle (bregma: −0.2 mm, lateral: 1.0 mm, depth: −3.0 mm) using Alzet Osmotic Pump (1004, DURECT Corporation, CA, United States) and ALZET Brain Infusion Kit 3 (DURECT Corporation). Based on the amount of CSF produced which was 18 μL/h and the pump flow rate of 0.11 μL/h, the peptide in the pump was estimated to be diluted 164 times in the CSF to reach a final concentration 10 nM which was the effective dose in the cultured neuron experiments. Therefore 1.64 µM GPPGPAG was loaded into the pump. Stability of GPPGPAG in saline, mouse plasma and mouse cerebral cortex was confirmed by LC-MS quantification. GPPGPAG was mixed with saline or plasma at 5 μg/ml concentration. Otherwise, GPPGPAG was mixed with cortical lysate at 6.5 μg/g of cortex. After incubation at 37°C for 0, 10, 60, and 180 min, samples were dried up and served to LC-MS. Areas of MS peaks of GPPGPAG were quantified. […]
Stability of GPPGPAG in biological fluids.
(A) GPPGPAG was mixed with saline at 5 μg/ml concentration. (B) GPPGPAG was mixed with mouse plasma at 5 μg/ml concentration. […]

Substance: GPPGPAG [GPPGPAG]
- body weight ([1]; 5XFAD mice, 10 nM in CSF): not significantly changed
- body weight ([1]; female 5XFAD mice, 10 nM, separately performed experiment): no significant difference
- stability, amount remaining (MS peak area) ([2]; fresh lysate of mouse cerebral cortex, 6.5 μg/g of cortex, 37°C, 0, 10, 60, 180 min, LC-MS, n = 1): declined at 60 min after the incubation
- time retained in the brain after entering ([2]; inferred from stability in plasma and cortical lysate): ≤ 10 min
